Measured values reported in patent US6787327B2, “Methods for determining tyrosine-DNA phosphodiesterase activity” (Kelk Graduate of Applied Life Sciences, priority 2001, dated 2004).

Target: HTDPNΔ1-39 (recombinant human TDP) (Homo sapiens, UniProt Q9NUW8)
Details: manganese chloride 5 mM or 10 mM; 5 mM substrate, 5 μg protein; absorbance at 415 nm; FIG. 7
Description: In these assays, a chromogenic enzymatic assay system is used. In these systems, a substrate of smaller molecular weight (i.e., as compared with other substrates) containing one single base of thymidine, with chromogenic para-nitrophenyl group attached to the 3′-hydroxy group of deoxyribose was chosen. This compound mimics the aromatic groups of tyrosine in topo I-DNA complexes.
Upon the cleavage of the phosphodiester bond by TDP, the p-nitrophenol group mimicking the tyrosine residue in topo I-DNA complexes is released. The concentration of this group (i.e., a chromogen) is determined using spectroscopy. Thus, in this Example, enzymatic reactions contained 100 mM Tris HCl, pH 8.5, 100 mM NaCl, 1 mM DTT, 5 mM para-nitrophenyl thymidine-3′-phosphate and 5 μg of purified protein in a volume of 200 μl. For these reactions, 96-well plates were used. The amount of cleaved product (p-nitrophenol) was assessed by determining its absorbance at 415 nm (Ultramark Microplate Imaging System, BioRad).
During the development of this assay system, it was determined that the system may be optimized by the inclusion of manganese cation in the assay. […] Upon incubation of various TDP mutants and the substrate (para-nitrophenyl-thymidine-3′-phosphate) in the presence of manganese cations, the concentrations of the resulting para-nitrophenynol were calculated based on the optical density measured at 415 nm. […]

HTDPNΔ1-39 (recombinant human TDP), sequence (Q9NUW8 40-608, stated change not applied): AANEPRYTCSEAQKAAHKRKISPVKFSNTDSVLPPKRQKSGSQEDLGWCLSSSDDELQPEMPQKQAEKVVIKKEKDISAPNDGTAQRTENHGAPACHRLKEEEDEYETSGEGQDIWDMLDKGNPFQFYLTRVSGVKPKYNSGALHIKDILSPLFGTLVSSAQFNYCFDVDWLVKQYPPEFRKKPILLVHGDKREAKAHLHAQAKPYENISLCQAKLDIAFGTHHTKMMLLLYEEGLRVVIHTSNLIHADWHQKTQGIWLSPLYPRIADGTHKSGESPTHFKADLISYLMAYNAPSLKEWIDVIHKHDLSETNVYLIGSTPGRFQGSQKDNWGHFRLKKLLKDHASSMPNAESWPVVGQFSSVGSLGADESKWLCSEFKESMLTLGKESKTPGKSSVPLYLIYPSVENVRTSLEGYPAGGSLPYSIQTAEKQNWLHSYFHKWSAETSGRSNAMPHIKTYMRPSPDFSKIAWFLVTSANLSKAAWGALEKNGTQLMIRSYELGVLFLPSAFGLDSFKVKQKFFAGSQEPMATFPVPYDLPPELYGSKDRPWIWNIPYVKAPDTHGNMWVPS

manganese chloride
increase of enzymatic activity on para-nitrophenyl thymidine-3′-phosphate, as compared to the activity in the presence of magnesium: 7 fold | increase of enzymatic activity on para-nitrophenyl thymidine-3′-phosphate, as compared with the activity in the absence of cations: 17 fold
